# Experimental data taken from patent US7951920B2, “Conjugate of an antibody against CCR5 and an antifusogenic peptide” (Roche Palo Alto LLC, priority 2006, dated 2011).
# Experiments:
# [1] = test system: pseudotyped NL-Bal viruses; type: cell-based, HIV; conditions: pseudotyped NL-Bal virus, JC53-BL cells, 3 day incubation, inhibition of luciferase activity
# Protocol: For the production of pseudotyped NL-Bal viruses, plasmid pNL4-3Δenv (HIV pNL4-3 genomic construct with a deletion within the env gene) and pcDNA3.1/NL-BAL env [pcDNA3.1 plasmid containing NL-Bal env gene (obtained from NIBSC Centralized Facility for AIDS Reagents)] were co-transfected into the HEK 293FT cell line (Invitrogen), cultured in Dulbecco's modified […] (DMEM) containing 10% fetal calf serum (FCS), 100 U/mL Penicillin, 100 μg/mL Streptomycin, 2 mM L-glutamine and 0.5 mg/mL geniticin (all media from Invitrogen/Gibco). The supernatants containing pseudotyped viruses were harvested two days following transfection, and cellular debris was removed by filtration through a 0.45 μm pore size PES (polyethersulfone) filter (Nalgene) and stored at −80° C. in aliquots. For normalization in assay performance, virus stock aliquots were used to infect JC53-BL (US NIH Aids Reagent Program) cells yielding approximately 1.5×10^5 RLU (relative light units) per well. Test antifusogenic peptide-anti-CCR5 antibody conjugates, reference antibodies and reference antifusogenic peptides (T-20, T-1249, T-651 and T-2635) were serially diluted in 96-well plates. The assay was carried out in quadruplicates. Each plate contained cell control and virus control wells. The equivalent of 1.5×10^5 RLU of virus stocks were added to each well, then 2.5×10^4 JC53-BL cells were added to each well, with a final assay volume of 200 μl per well. After 3 day incubation at 37° C., 90% Relative Humidity, and 5% CO2, media were aspirated and 50 μl of Steady-Glo® Luciferase Assay System (Promega) was added to each well. The assay plates were read on a Luminometer (Luminoskan, Thermo Electron Corporation) after 10 minutes of incubation at room temperature. Percent inhibition of luciferase activity was calculated for each dose point after subtracting the background, and IC50 and IC90-values were determined by using XLfit curve fitting software for Excel (version 3.0.5 Build12; […]).
# [2] = test system: HIV; experiment: HIV assays; type: cell-based; conditions: comparison with antibody 2D7
# [3] = test system: CCR5 mutant K171A or E172A; experiment: Epitope binding by alanine scanning (epitope mapping); set-up: species or system human; conditions: 100% epitope binding is defined for wild-type CCR5
# Description: Epitope binding is investigated by using alanine scanning according to the method described by W. C. Olson et al. (J. Virol. (1999) 73:4145-55) for epitope mapping. […] Epitope binding for antibody C is found to be 20% for CCR5 mutant K171A or E172A (glu 172 is mutated to ala). 100% epitope binding is defined for wild-type CCR5. A further preferred anti-CCR5 antibody binds to the same epitope as antibody C binds.
Molecule,Antiviral activity IC50 [1],Antiviral activity IC90 [1],IC50 values compared with antibody 2D7 [2],Epitope binding [3]
CC[C@H](C)[C@H](NC(=O)[C@H](CCC(N)=O)NC(=O)[C@H](C)NC(=O)[C@H](CCC(N)=O)NC(=O)[C@H](CCC(=O)O)NC(=O)[C@H](CC(C)C)NC(=O)[C@H](CC(C)C)NC(=O)[C@H](C)NC(=O)[C@@H](NC(=O)[C@@H](NC(=O)[C@H](CCCCN)NC(=O)[C@H](CCC(N)=O)NC(=O)[C@H](CCC(=O)O)NC(=O)[C@H](Cc1c[nH]c2ccccc12)NC(=O)[C@H](CCC(=O)O)NC(=O)[C@H](CCC(N)=O)NC(=O)[C@H](Cc1c[nH]c2ccccc12)NC(C)=O)[C@@H](C)CC)[C@@H](C)O)C(=O)N[C@@H](CCC(N)=O)C(=O)N[C@@H](CCC(N)=O)C(=O)N[C@@H](CCC(=O)O)C(=O)N[C@@H](CCCCN)C(=O)N[C@@H](CC(N)=O)C(=O)N[C@@H](CCC(=O)O)C(=O)N[C@@H](Cc1ccc(O)cc1)C(=O)N[C@@H](CCC(=O)O)C(=O)N[C@@H](CC(C)C)C(=O)N[C@@H](CCC(N)=O)C(=O)N[C@@H](CCCCN)C(=O)N[C@@H](CC(C)C)C(=O)N[C@@H](CC(=O)O)C(=O)N[C@@H](CCCCN)C(=O)N[C@@H](Cc1c[nH]c2ccccc12)C(=O)N[C@@H](C)C(=O)N[C@@H](CO)C(=O)N[C@@H](CC(C)C)C(=O)N[C@@H](Cc1c[nH]c2ccccc12)C(=O)N[C@@H](CCC(=O)O)C(=O)N[C@@H](Cc1c[nH]c2ccccc12)C(=O)N[C@@H](Cc1ccccc1)C(N)=O [T-1249],11 ng/mL,90 ng/mL,–,–
CC[C@H](C)[C@H](NC(=O)[C@H](C)NC(=O)[C@H](CCCNC(=N)N)NC(=O)[C@H](CC(=O)O)NC(=O)[C@H](Cc1c[nH]c2ccccc12)NC(=O)[C@H](C)NC(=O)[C@H](CCC(=O)O)NC(=O)[C@H](Cc1c[nH]c2ccccc12)NC(=O)[C@@H](NC(=O)[C@@H](NC(C)=O)[C@@H](C)O)[C@@H](C)O)C(=O)N[C@@H](C)C(=O)N[C@@H](CCC(=O)O)C(=O)N[C@@H](Cc1ccc(O)cc1)C(=O)N[C@@H](C)C(=O)N[C@@H](C)C(=O)N[C@@H](CCCNC(=N)N)C(=O)N[C@H](C(=O)N[C@@H](CCC(=O)O)C(=O)N[C@@H](C)C(=O)N[C@@H](CC(C)C)C(=O)N[C@H](C(=O)N[C@@H](CCCNC(=N)N)C(=O)N[C@@H](C)C(=O)N[C@@H](C)C(=O)N[C@@H](CCC(N)=O)C(=O)N[C@@H](CCC(=O)O)C(=O)N[C@@H](CCC(N)=O)C(=O)N[C@@H](CCC(N)=O)C(=O)N[C@@H](CCC(=O)O)C(=O)N[C@@H](CCCCN)C(=O)N[C@@H](CC(N)=O)C(=O)N[C@@H](CCC(=O)O)C(=O)N[C@@H](C)C(=O)N[C@@H](C)C(=O)N[C@@H](CC(C)C)C(=O)N[C@@H](CCCNC(=N)N)C(=O)N[C@@H](CCC(=O)O)C(=O)N[C@@H](CC(C)C)C(N)=O)[C@@H](C)CC)[C@@H](C)CC [T-2635],14 ng/mL,161 ng/mL,–,–
enfuvirtide,206 ng/mL,3955 ng/mL,–,–
"Antibody C: anti-CCR5 antibody, variable domains SEQ ID NO:5, 6 (antibody, V domains shown, mouse) VH: QVQLKQSGPGLVRPSQSLSITCTVSGFPLGIFGVHWVRQSPGKGLEWLGVIWKGGNTDYNAAFMSRLRITKDNSKSQVFFRMNSLQTDDTAIYYCAKVNLADAMDYWGQGTSVIVSS VL: DIQMTQSPASLSASVGETVTITCRASGNIHGYLAWFQQKQGKSPQLLVYNTKTLAEGVPSRFSGSGSGTQFSLKINSLQPEDFGNYYCQHHYDLPRTFGGGTKLEIKR",–,–,lower IC50 values than antibody 2D7,20%
